Laboratory results as given in patent publication US20060112494A1, “Method of protecting an animal skin product from metalloproteinase activity” (priority 2004, published 2006).
Like-named read-outs stand apart in the source and are kept apart here.

What was measured:
[1] = system: mixed bacteria on fresh hide samples; set-up: Growth/Days 2 / Growth/Days 4: key to the marks not given beside the values; conditions: for Growth/Days 1: day 1; for Growth/Days 2: day 2; for Growth/Days 4: day 4;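 on all read-outs here: fresh hide pieces laid on inhibitor-containing nutrient agar supplemented with 0.5% Azocoll, incubated at 30 °C, then scored for growth of bacteria originating from the hide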
[2] = system: collagenase; conditions: for Collagenase Activity/Days 1: day 1; for Collagenase Activity/Days 2: day 2; for Collagenase Activity/Days 4: day 4; for Collagenase Activity/Days 7: day 7;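 on all read-outs here: nutrient agar containing 0.5% Azocoll with inhibitor, topped by a fresh hide piece, kept at 30 °C, collagenase from hide bacteria scored visually as clearing zone around growth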
Method: Nutrient agar amended with 0.5% AZOCOLL was used as the test medium to study collagenase activity. The nutrient agar was prepared and autoclaved and then was cooled to 55° C. Azocol was added to give a final concentration of 0.5%. […] Fresh hides were obtained from a tannery and were cut into pieces of approximately 2 cm square. One 2×2 cm hide sample was placed on top of the agar containing the inhibitors. Treated samples were incubated at 30° C. and evaluated after 24 hours, 2 days, 3 or 4 days and 7 days for collagenase activity and also for the growth of the bacteria. The bacteria from the hides secreted collagenase into the medium as they grew to degrade the collagen in the azocoll medium and collagenase activity was determined by visual inspection of the clear zone around the bacteria

O=C([O-])CN(CCN(CC(=O)O)CC(=O)O)CC(=O)[O-].[Na+].[Na+] [Na2EDTA, ethylenediaminetetraacetic acid disodium salt]
Growth/Days 1 ([1]; Conc. 0.025%): ++++ | Growth/Days 2 ([1]; Conc. 0.025%): ++++ | Growth/Days 4 ([1]; Conc. 0.025%): ++++ | Growth/Days 1 ([1]; Conc. 0.05%): ++++ | Growth/Days 2 ([1]; Conc. 0.05%): ++++ | Growth/Days 4 ([1]; Conc. 0.05%): ++++ | Growth/Days 1 ([1]; Conc. 0.075%): ++++ | Growth/Days 2 ([1]; Conc. 0.075%): ++++ | Growth/Days 4 ([1]; Conc. 0.075%): ++++ | Growth/Days 1 ([1]; Conc. 0.1%): ++ | Growth/Days 2 ([1]; Conc. 0.1%): ++++ | Growth/Days 4 ([1]; Conc. 0.1%): ++++ | Growth/Days 1 ([1]; Conc. 0.2%): 0 | Growth/Days 2 ([1]; Conc. 0.2%): +++ | Growth/Days 4 ([1]; Conc. 0.2%): ++++ | Growth/Days 1 ([1]; Conc. 0.3%): 0 | Growth/Days 2 ([1]; Conc. 0.3%): +++ | Growth/Days 4 ([1]; Conc. 0.3%): ++++ | Growth/Days 1 ([1]; Conc. 0.4%): 0 | Growth/Days 2 ([1]; Conc. 0.4%): +++ | Growth/Days 4 ([1]; Conc. 0.4%): ++++ | Growth/Days 1 ([1]; Conc. 0.5%): 0 | Growth/Days 2 ([1]; Conc. 0.5%): +++ | Growth/Days 4 ([1]; Conc. 0.5%): ++++ | Collagenase Activity/Days 1 ([2]; Conc. 0.025%): ++++ | Collagenase Activity/Days 2 ([2]; Conc. 0.025%): ++++ | Collagenase Activity/Days 4 ([2]; Conc. 0.025%): ++++ | Collagenase Activity/Days 7 ([2]; Conc. 0.025%): ++++ | Collagenase Activity/Days 1 ([2]; Conc. 0.05%): 0 | Collagenase Activity/Days 2 ([2]; Conc. 0.05%): +++ | Collagenase Activity/Days 4 ([2]; Conc. 0.05%): ++++ | Collagenase Activity/Days 7 ([2]; Conc. 0.05%): ++++ | Collagenase Activity/Days 1 ([2]; Conc. 0.075%): + | Collagenase Activity/Days 2 ([2]; Conc. 0.075%): +++ | Collagenase Activity/Days 4 ([2]; Conc. 0.075%): ++++ | Collagenase Activity/Days 7 ([2]; Conc. 0.075%): ++++ | Collagenase Activity/Days 1 ([2]; Conc. 0.1%): 0 | Collagenase Activity/Days 2 ([2]; Conc. 0.1%): + | Collagenase Activity/Days 4 ([2]; Conc. 0.1%): +++ | Collagenase Activity/Days 7 ([2]; Conc. 0.1%): +++ | Collagenase Activity/Days 1 ([2]; Conc. 0.2%): 0 | Collagenase Activity/Days 2 ([2]; Conc. 0.2%): 0 | Collagenase Activity/Days 4 ([2]; Conc. 0.2%): 0 | Collagenase Activity/Days 7 ([2]; Conc. 0.2%): + | Collagenase Activity/Days 1 ([2]; Conc. 0.3%): 0 | Collagenase Activity/Days 2 ([2]; Conc. 0.3%): 0 | Collagenase Activity/Days 4 ([2]; Conc. 0.3%): 0 | Collagenase Activity/Days 7 ([2]; Conc. 0.3%): + | Collagenase Activity/Days 1 ([2]; Conc. 0.4%): 0 | Collagenase Activity/Days 2 ([2]; Conc. 0.4%): 0 | Collagenase Activity/Days 4 ([2]; Conc. 0.4%): 0 | Collagenase Activity/Days 7 ([2]; Conc. 0.4%): 0 | Collagenase Activity/Days 1 ([2]; Conc. 0.5%): 0 | Collagenase Activity/Days 2 ([2]; Conc. 0.5%): 0 | Collagenase Activity/Days 4 ([2]; Conc. 0.5%): 0 | Collagenase Activity/Days 7 ([2]; Conc. 0.5%): 0
